Source: patent US9051591B2, “Bacterium of enterobacteriaceae family producing L-aspartic acid or L-aspartic acid-derived metabolites and a method for producing L-aspartic acid or L-aspartic acid-derived metabolites” (AJINOMOTO CO., INC., priority 2010, dated 2015)
Values joined by “and” are separate entries in the source; they are usually repeats but may differ in a detail not shown here. Equal entries are not always repeated. Where two headings read alike, the source gives them in different places.

Legend:
ADH (Polaromonas sp.) = molecular target: T1, ADH (Polaromonas sp.) (Polaromonas sp., UniProt Q126F5); assay: Screening of substrate specificity, ADH; details: 20 mM substrate; for Deamination activity, ADH: relative to aspartate, 2 mM NAD^+, pH 9.8; for Amination activity, ADH: relative to oxaloacetate, […] NADH, pH 9
T1 sequence (Q126F5 1-267): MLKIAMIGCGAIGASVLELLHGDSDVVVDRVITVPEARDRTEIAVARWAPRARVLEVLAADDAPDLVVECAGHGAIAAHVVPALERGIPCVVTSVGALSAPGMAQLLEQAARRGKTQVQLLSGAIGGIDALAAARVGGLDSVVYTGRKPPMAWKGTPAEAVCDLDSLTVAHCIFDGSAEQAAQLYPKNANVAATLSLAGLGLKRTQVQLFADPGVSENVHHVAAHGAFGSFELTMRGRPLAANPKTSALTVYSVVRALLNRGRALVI

ADH-Re = assay: Screening of substrate specificity, ADH-Re; details: 20 mM substrate; for Deamination activity, ADH-Re: relative to aspartate, 2 mM NAD^+, pH 9.8; for Amination activity, ADH-Re: relative to oxaloacetate, […] NADH, pH 9
ADH-Bj = assay: Screening of substrate specificity, ADH-Bj; details: relative to aspartate; 20 mM substrate, 2 mM NADP^+, pH 9.8
ADH1-Rp = assay: Screening of substrate specificity, ADH1-Rp; details: relative to aspartate; 20 mM substrate, 2 mM NADP^+, pH 9.8
[1] = molecular target: T2, purified ADH (Polaromonas sp.) (Polaromonas sp., UniProt Q126F5); assay: Screening of alternative substrates for purified ADH; details: 10 mM, 29° C.; for ability to replace aspartic acid in reverse reaction: 1 mM NAD^+; for ability to replace oxaloacetate in forward reaction: […] NADH, 50 mM NH4Cl
T2 sequence (Q126F5 1-267): T1 sequence (Q126F5 1-267)

Polaromonas sp. ADH = molecular target: T3, Polaromonas sp. ADH (Polaromonas sp., UniProt Q126F5); details: Michaelis-Menten plots
T3 sequence (Q126F5 1-267): T1 sequence (Q126F5 1-267)

[2] = molecular target: T4, Polaromonas sp. aspartate dehydrogenase (Polaromonas sp., UniProt Q126F5); assay: Regulatory properties of the ADH; details: for effect on ADH activity in forward and reverse reactions: 29° C., pH 9.8
T4 sequence (Q126F5 1-267): T1 sequence (Q126F5 1-267)

[3] = molecular target: Bradyrhizobium japonicum ADH-Bj (Bradyrhizobium diazoefficiens, UniProt Q89FY1); assay: Kinetic parameters of the Bradyrhizobium japonicum ADH-Bj
Bradyrhizobium japonicum ADH-Bj, sequence (Q89FY1 other isoform, or with tags, fused parts or gaps): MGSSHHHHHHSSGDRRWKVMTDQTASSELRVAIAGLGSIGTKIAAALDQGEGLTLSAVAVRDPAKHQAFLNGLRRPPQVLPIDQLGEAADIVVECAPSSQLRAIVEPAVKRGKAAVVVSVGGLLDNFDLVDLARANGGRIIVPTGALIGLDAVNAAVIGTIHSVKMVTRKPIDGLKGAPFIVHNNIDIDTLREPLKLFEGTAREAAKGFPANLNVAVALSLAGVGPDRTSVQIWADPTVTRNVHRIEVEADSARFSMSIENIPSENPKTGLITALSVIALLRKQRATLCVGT

[4] = molecular target: Rhodopseudomonas palustris ADH1-Rp (Rhodopseudomonas palustris, UniProt Q2J3V1); assay: Kinetic parameters of the Rhodopseudomonas palustris AspDH 1
Rhodopseudomonas palustris ADH1-Rp, sequence (Q2J3V1 entry or part of it): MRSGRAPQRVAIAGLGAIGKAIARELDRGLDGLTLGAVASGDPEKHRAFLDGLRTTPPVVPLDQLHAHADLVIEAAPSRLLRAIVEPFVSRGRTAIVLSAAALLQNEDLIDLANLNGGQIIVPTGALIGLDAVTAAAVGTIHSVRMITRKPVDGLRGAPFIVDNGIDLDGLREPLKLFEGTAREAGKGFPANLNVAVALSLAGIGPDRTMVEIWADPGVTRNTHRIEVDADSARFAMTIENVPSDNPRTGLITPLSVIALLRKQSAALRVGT

[5] = molecular target: T5, Ralstonia eutropha ADH-Re (Cupriavidus necator, UniProt Q0K391); details: Oxaloacetate reductive amination; Michaelis-Menten plots
T5 sequence (Q0K391 with tags, fused parts or gaps): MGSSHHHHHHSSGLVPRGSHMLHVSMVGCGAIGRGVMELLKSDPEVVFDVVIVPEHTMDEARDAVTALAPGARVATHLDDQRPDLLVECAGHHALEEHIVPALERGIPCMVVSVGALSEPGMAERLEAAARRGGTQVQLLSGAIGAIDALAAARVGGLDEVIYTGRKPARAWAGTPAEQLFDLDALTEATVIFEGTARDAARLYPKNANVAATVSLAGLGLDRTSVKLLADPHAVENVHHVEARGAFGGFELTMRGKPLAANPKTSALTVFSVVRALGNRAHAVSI

[6] = Aspartic acid oxidative deamination
[7] = Aspartate oxidative deamination
[8] = Oxaloacetate reductive amination

For `C[C@H](N)C(=O)O` [Alanine], the “Deamination activity, ADH” value (ADH (Polaromonas sp.)) was “na (no activity (<2%))”, the “Deamination activity, ADH-Re” value (ADH-Re) was “na (no activity (<2%))” and the “Deamination activity, ADH-Bj” value (ADH-Bj) was “na (no activity (<2%))”. For the same compound, the “Deamination activity, ADH1-Rp” value (ADH1-Rp) was “na (no activity (<2%))” and the “ability to replace aspartic acid in reverse reaction” value (“ability to replace aspartic acid” for short) [1] was “No activity”.

Work on `N[C@@H](CC(=O)O)C(=O)O` [Aspartic acid] yielded a Km (Polaromonas sp. ADH; [6]) of 1.3 ± 0.2 mM, a Vmax (Polaromonas sp. ADH; [6]) of 26.2 ± 0.9 µmol/min/mg and a kcat (Polaromonas sp. ADH; [6]) of 12 ± 0.333 s⁻¹. The “decrease of enzyme activity in forward reaction” value ([2]; addition of 100 mM) was 3 times, the “Deamination activity, ADH” value (ADH (Polaromonas sp.)) was 100% and the “Deamination activity, ADH-Re” value (ADH-Re) was 100%. For the same compound, the “Deamination activity, ADH-Bj” value (ADH-Bj) was 100 ± 11%, the “Deamination activity, ADH1-Rp” value (ADH1-Rp) was 100 ± 8% and the Km [3, 7] was 27 ± 4 mM. The Vmax [3, 7] was 14.3 ± 0.9 µmol/min/mg, the kcat [3, 7] was 7.33 ± 0.5 s⁻¹ and the Km [4, 6] was 13.4 ± 0.5 mM. For the same compound, the Vmax [4, 6] was 5.61 ± 0.08 µmol/min/mg and the kcat [4, 6] was 2.87 ± 0.033 s⁻¹.

With `N[C@@H](CCC(=O)O)C(=O)O` [Glutamate] the “effect on ADH activity in forward and reverse reactions” value (“effect on ADH activity” below) ([2]; addition of 1 mM) was “not significantly affected”, the “Deamination activity, ADH” value (ADH (Polaromonas sp.)) was “na (no activity (<2%))” and the “Deamination activity, ADH-Re” value (ADH-Re) was “na (no activity (<2%))”. The “Deamination activity, ADH-Bj” value (ADH-Bj) was 5.5 ± 1.1%, the “Deamination activity, ADH1-Rp” value (ADH1-Rp) was 4.5 ± 0.4% and the “ability to replace aspartic acid” value [1] was “No activity”.

For `Cl.N` [NH4Cl], the Km (Polaromonas sp. ADH; [8]) was 33 mM, the Vmax (Polaromonas sp. ADH; [8]) was 83 ± 3 µmol/min/mg and the kcat (Polaromonas sp. ADH; [8]) was 38 ± 1.33 s⁻¹. The Km [5] was 12 mM and 11.9 mM, the Vmax [5] was 113 ± 4 µmol/min/mg and the kcat [5] was 56.67 ± 2 s⁻¹. The “inhibition of the reverse reaction of aspartic acid deamination” value ([2]; addition of 1 mM) was “did not significantly inhibit”, the Km [3, 8] was 4.3 mM and 4 mM and the Vmax [3, 8] was 48 ± 2 µmol/min/mg. For the same compound, the kcat [3, 8] was 24.67 ± 0.833 s⁻¹, the Km [4, 8] was 11 mM and 11.3 mM and the Vmax [4, 8] was 20.2 ± 0.6 µmol/min/mg. It also gave a kcat [4, 8] of 10.3 ± 0.333 s⁻¹.

With `O=C(O)CC(=O)C(=O)O` [Oxaloacetate] the “Amination activity, ADH” value (ADH (Polaromonas sp.)) was 100 ± 3%.

In the case of `CC(=O)SCCNC(=O)CCNC(=O)[C@H](O)C(C)(C)COP(=O)(O)OP(=O)(O)OC[C@H]1O[C@@H](n2cnc3c(N)ncnc32)[C@H](O)[C@@H]1OP(=O)(O)O` [acetyl-coenzyme A], the “effect on ADH activity” value ([2]; addition of 1 mM) is reported as “not significantly affected”.

`NC(=O)C[C@H](N)C(=O)O` [asparagine] was tested, and the “ability to replace aspartic acid” value [1] was “No activity”.

In the case of `CC(C)(COP(=O)(O)OP(=O)(O)OC[C@H]1O[C@@H](n2cnc3c(N)ncnc32)[C@H](O)[C@@H]1OP(=O)(O)O)[C@@H](O)C(=O)NCCC(=O)NCCS` [coenzyme A], the “effect on ADH activity” value ([2]; addition of 1 mM) is reported as “not significantly affected”.

`CC[C@H](C)[C@H](N)C(=O)O` [isoleucine] was tested, and the “ability to replace aspartic acid” value [1] was “No activity”.

For `CC(C)C(=O)C(=O)O` [ketoisovaleriate], the “Amination activity, ADH” value (ADH (Polaromonas sp.)) was “na (no activity (<0.2%))”, the “Amination activity, ADH-Re” value (ADH-Re) was “na (no activity (<0.2%))” and the “ability to replace oxaloacetate in forward reaction” value [1] was “No activity”.

For `CCC(C)C(=O)C(=O)O` (stereo not shown) [ketomethylvaleriate], the “Amination activity, ADH” value (ADH (Polaromonas sp.)) was “na (no activity (<0.2%))”, the “Amination activity, ADH-Re” value (ADH-Re) was “na (no activity (<0.2%))” and the “ability to replace oxaloacetate in forward reaction” value [1] was “No activity”.
